The experiment deals with T1, hT1R1/hT1R3 umami receptor (Homo sapiens, UniProt Q7RTX0+Q7RTX1).
T1 construct: expressed in transfected cells; host or cells: HEK293 derivative stably expressing Gα15, clone I-17, expression induced with mifepristone
T1 sequence (Q7RTX1 21-841): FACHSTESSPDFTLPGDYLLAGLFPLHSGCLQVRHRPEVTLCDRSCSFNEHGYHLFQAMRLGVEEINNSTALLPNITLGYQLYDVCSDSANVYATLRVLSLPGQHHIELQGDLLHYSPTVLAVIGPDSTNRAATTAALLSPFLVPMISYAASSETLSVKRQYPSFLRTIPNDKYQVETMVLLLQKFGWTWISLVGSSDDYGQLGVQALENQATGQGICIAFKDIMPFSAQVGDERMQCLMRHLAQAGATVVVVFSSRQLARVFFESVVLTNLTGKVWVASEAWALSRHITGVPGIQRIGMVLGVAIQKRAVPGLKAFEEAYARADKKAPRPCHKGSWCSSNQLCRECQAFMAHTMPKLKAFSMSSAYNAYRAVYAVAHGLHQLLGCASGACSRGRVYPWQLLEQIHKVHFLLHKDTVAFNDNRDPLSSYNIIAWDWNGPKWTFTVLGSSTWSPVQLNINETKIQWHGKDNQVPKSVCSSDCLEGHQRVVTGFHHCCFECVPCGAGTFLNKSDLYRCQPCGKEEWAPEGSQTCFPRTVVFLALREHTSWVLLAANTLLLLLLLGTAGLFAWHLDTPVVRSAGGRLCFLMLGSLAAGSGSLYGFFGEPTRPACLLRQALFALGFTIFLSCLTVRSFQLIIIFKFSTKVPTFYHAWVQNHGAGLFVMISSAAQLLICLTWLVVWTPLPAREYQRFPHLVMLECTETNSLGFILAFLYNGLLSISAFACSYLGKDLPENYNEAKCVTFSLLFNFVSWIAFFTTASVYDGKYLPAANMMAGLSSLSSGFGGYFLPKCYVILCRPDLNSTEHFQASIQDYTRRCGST
T1 sequence (Q7RTX0 21-852): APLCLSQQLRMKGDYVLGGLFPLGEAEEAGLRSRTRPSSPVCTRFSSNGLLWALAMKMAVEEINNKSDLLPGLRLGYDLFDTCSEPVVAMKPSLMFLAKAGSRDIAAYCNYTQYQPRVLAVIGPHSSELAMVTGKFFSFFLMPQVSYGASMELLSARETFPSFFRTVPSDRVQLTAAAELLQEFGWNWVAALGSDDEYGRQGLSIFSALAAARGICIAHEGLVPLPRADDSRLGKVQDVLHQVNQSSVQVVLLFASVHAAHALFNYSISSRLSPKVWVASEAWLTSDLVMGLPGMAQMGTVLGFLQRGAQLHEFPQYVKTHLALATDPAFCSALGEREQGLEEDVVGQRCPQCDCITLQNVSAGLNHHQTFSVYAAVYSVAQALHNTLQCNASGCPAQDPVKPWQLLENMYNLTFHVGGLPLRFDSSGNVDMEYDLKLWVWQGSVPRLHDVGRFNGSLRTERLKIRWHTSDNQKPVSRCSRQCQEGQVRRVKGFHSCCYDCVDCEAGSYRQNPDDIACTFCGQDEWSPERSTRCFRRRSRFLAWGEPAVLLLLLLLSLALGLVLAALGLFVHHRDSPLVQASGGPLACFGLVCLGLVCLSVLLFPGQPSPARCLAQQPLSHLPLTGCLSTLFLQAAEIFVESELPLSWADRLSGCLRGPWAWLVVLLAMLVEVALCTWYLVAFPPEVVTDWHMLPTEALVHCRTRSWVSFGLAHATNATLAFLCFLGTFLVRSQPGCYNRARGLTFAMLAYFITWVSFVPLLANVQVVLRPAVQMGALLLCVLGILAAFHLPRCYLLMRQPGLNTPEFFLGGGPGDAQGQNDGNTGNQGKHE
Put plainly: Umami taste enhancement activity assay (EC50 ratio vs. MSG). Format: cell-based. The procedure: A series of measurements of the dose response is run in solutions comprising MSG alone, then a second dose response is run with MSG in combination with predetermined amounts of a candidate compound of Formula (I) at the same time.
Typical compound concentrations tested were 30 μM, 10 μM, 3 μM, 1 μM, 0.3 μM, 0.1 μM and 0.03 μM. The relative efficacy of compounds of Formula (I) at enhancing the receptor was determined by calculating the magnitude of a shift in the EC50 for monosodium glutamate. Enhancement was defined as a ratio (EC50R) corresponding to the EC50 of monosodium glutamate, determined in the absence of the test compound, divided by the EC50 of monosodium glutamate, determined in the presence of the test compound.
Stated alternatively, “EC50 ratio” as compared to MSG is calculated based on the following definitions: EC50 Ratio vs. MSG=EC50 (MSG)/EC50(MSG+[Compound]) • wherein “[compound]” refers to the concentration of the compound of Formula (I) used to elicit (or enhance or potentiate) the MSG dose response.

For `COc1cccc(C(=O)NC2CCCc3ccccc32)c1O` (stereo not shown) [Example A87, 2-hydroxy-3-methoxy-N-(1,2,3,4-tetrahydronaphthalen-1-yl)benzamide], under “Table A, compound @ 1 uM”, the “Ec50 ratio (vs. MSG)” value came to 3.8. Consider `CCOc1ccc(/C=C/C(=O)NC(C)CC)cc1` (stereo not shown) [Example D13, (E)-N-sec-butyl-3-(4-ethoxyphenyl)acrylamide], for which the “Ec50 ratio (vs. MSG)” value (Table D, compound @ 0.3 uM) is recorded as 2.7. As for `CCCC(CCC)NC(=O)Nc1ccc(OC)cc1OC` [Example 159, 1-(2,4-dimethoxyphenyl)-3-(heptan-4-yl)urea], the “EC50 ratio (enhanced the effectiveness of monosodium glutamate)” value (compound present at 0.3 μM) was 7.61. Consider `CCCC(CCC)NC(=O)c1cc2cc(OC)ccc2o1` [Example A10, N-(heptan-4-yl)-5-methoxybenzofuran-2-carboxamide], for which the “Ec50 ratio (vs. MSG)” value (Table A, compound @ 1 uM) is listed as 4.51. As for `CCCC(CCC)NC(=O)c1ccc2c(c1)OC(CC(=O)OCC)O2` (stereo not shown) [Example 19, Ethyl 2-(5-(heptan-4-ylcarbamoyl)benzo[d][1,3]dioxol-2-yl)acetate], the “EC50 ratio (enhanced the effectiveness of monosodium glutamate)” value (compound present at 3 μM) turned out to be 2.5. Regarding `CCCC(CCC)NC(=O)c1cc2ccccc2o1` [Example 25, Benzofuran-2-carboxylic(1-propylbutyl)amide], under “compound present at 0.3 μM”, the “EC50 ratio (enhanced the effectiveness of monosodium glutamate)” value is recorded as 2.6. Regarding `COc1ccc(CNC(=O)c2ccccc2-n2cccc2)c(OC)c1` [Example 121, N-(2,4-dimethoxybenzyl)-2-(1H-pyrrol-1-yl)benzamide], the “EC50 ratio (enhanced the effectiveness of monosodium glutamate)” value (compound present at 1 μM) is recorded as 11. Turning to `CCCC(COC(C)=O)NC(=O)c1ccc2c(c1)OCO2` (stereo not shown) [Example 14, 2-(benzo[d][1,3]dioxole-6-carboxamido)pentyl Acetate], the “EC50 ratio (enhanced the effectiveness of monosodium glutamate)” value (compound present at 3 μM) came to 4.1. As for `COc1ccc(C(=O)N[C@H](C)c2ccccc2)cc1Cl` [Example 63, (R)-3-chloro-4-methoxy-N-(1-phenylethyl)benzamide], the “EC50 ratio (enhanced the effectiveness of monosodium glutamate)” value (compound present at 0.3 μM) turned out to be 2.7. The same measure, in the same setting: then `COc1ccccc1CNC(=O)C(=O)NCCc1ccccn1` [Example 122, N-(2-Methoxy-benzyl)-N′-(2-pyridin-2-yl-ethyl)-oxalamide], with 18.85.

In the case of `CCCC(CCC)NC(=O)c1ccc(OC)cc1C#N` [Example 97, 2-cyano-N-(heptan-4-yl)-4-methoxybenzamide], the “EC50 ratio (enhanced the effectiveness of monosodium glutamate)” value (compound present at 1 μM) amounted to 4.52. `COc1cccc(C(=O)N[C@H]2CCCc3ccccc32)c1O` [Example A93, (S)-2-hydroxy-3-methoxy-N-(1,2,3,4-tetrahydronaphthalen-1-yl)benzamide]: the “Ec50 ratio (vs. MSG)” value (Table A, compound @ 1 uM) is given as 5.7.

`CCC(CC)NC(=O)c1ccc(OC)c(Cl)c1` [Example 61, 3-chloro-4-methoxy-N-(pentan-3-yl)benzamide]: the “EC50 ratio (enhanced the effectiveness of monosodium glutamate)” value (compound present at 0.3 μM) turned out to be 6.28. The same measure, in the same setting: next, `CCCC(CCC)NC(=O)/C=C/c1ccc(OC)c(OC)c1` [Example 87, 3-(3,4-Dimethoxy-phenyl)-N-(1-propyl-butyl)-acrylamide]: 2.4. For the compound `COc1ccc(CNC(=O)c2ccc(-c3ccccn3)s2)c(OC)c1` [Example 109, 5-Pyridin-2-yl-thiophene-2-carboxylic Acid 2,4-dimethoxy-benzylamide], the “EC50 ratio (enhanced the effectiveness of monosodium glutamate)” value (compound present at 3 μM) was found to be 8. As to `Cc1ccc(CCNC(=O)c2occc2C)cc1` [Example 120, 3-methyl-N-(p-tolylethyl)furan-2-carboxamide], the “EC50 ratio (enhanced the effectiveness of monosodium glutamate)” value (compound present at 1 μM) was determined as 3.3. As to `CCCC(CCC)NC(=O)c1ccc2c(c1)OC(C(C)C)O2` (stereo not shown) [Example 21, N-(heptan-4-yl)-2-isopropylbenzo[d][1,3]dioxole-5-carboxamide], the “EC50 ratio (enhanced the effectiveness of monosodium glutamate)” value (compound present at 3 μM) is recorded as 2.2. For the compound `O=C(NC1CCCc2ccccc21)c1ccc2c(c1)OCO2` (stereo not shown) [Example 7, N-(1,2,3,4-tetrahydronaphthalen-1-yl)benzo[d][1,3]dioxole-5-carboxamide], under “compound present at 0.3 μM”, the “EC50 ratio (enhanced the effectiveness of monosodium glutamate)” value was 7.8. Consider `CC1CCCCC1NC(=O)c1ccc(Cl)c(Cl)c1` (stereo not shown) [Example E54, 3,4-dichloro-N-(2-methylcyclohexyl)benzamide], for which the “Umami EC50 ratio” value (Table E, compound concentration not given) turned out to be 10.66.

On to `Cc1cc(C(=O)NC(C)CCc2ccccc2)ccc1O` (stereo not shown) [Example 111, 4-Hydroxy-3-methyl-N-(1-methyl-3-phenyl-propyl)-benzamide], for which the “EC50 ratio (enhanced the effectiveness of monosodium glutamate)” value (compound present at 0.3 μM) is listed as 7.

Take `COC(=O)[C@@H](CC(C)C)NC(=O)c1ccc(OC)c(Cl)c1` [Example 62, (R)-methyl 2-(3-chloro-4-methoxybenzamido)-4-methylpentanoate]: the “EC50 ratio (enhanced the effectiveness of monosodium glutamate)” value (compound present at 0.01 μM) was found to be 13.18. Regarding `O=C(NC1CCc2ccccc21)c1ccc2c(c1)OCO2` (stereo not shown) [Example 118, Benzo[1,3]dioxole-5-carboxylic Acid indan-1-ylamide], under “compound present at 0.3 μM”, the “EC50 ratio (enhanced the effectiveness of monosodium glutamate)” value was 5.33.

Regarding `CCOc1ccc(NC(=O)NC2CCCCC2C)cc1` (stereo not shown) [Example C10, 1-(4-ethoxyphenyl)-3-(2-methylcyclohexyl)urea], the “Ec50 ratio (vs MSG)” value (Table C, compound Con. 0.3 uM) was found to be 2.1. Turning to `O=C(NCc1ccc(OC(F)(F)F)cc1)c1ccsc1` [Example 107, Thiophene-3-carboxylic acid 4-trifluoromethoxy-benzylamide], the “EC50 ratio (enhanced the effectiveness of monosodium glutamate)” value (compound present at 3 μM) amounted to 8.5. Still for that read-out and setting: next, `COc1ccc(CNC(=O)c2ccnn2C)c(OC)c1` [Example 110, 2-Methyl-2H-pyrazole-3-carboxylic Acid 2,4-dimethoxy-benzylamide]: 7.9. For the compound `Cc1ccc(C(=O)NC2CCCc3ccccc32)s1` (stereo not shown) [Example A39, 5-Methyl-thiophene-2-carboxylic acid (1,2,3,4-tetrahydro-naphthalen-1-yl)-amide], the “Ec50 ratio (vs. MSG)” value (Table A, compound @ 1 uM) came to 2.3. For the compound `COc1ccc(CNC(=O)c2sccc2C)c(OC)c1` [Example 108, 3-Methyl-thiophene-2-carboxylic Acid 2,4-dimethoxy-benzylamide], where the note is “compound present at 3 μM”, the “EC50 ratio (enhanced the effectiveness of monosodium glutamate)” value was 5.8.

On to `CC(C)C[C@H](CO)NC(=O)c1ccc2c(c1)OCO2` [Example 8, (R)—N-(1-hydroxy-4-methylpentan-2-yl)benzo[d][1,3]dioxole-5-carboxamide], for which, for the setting “compound present at 3 μM”, the “EC50 ratio (enhanced the effectiveness of monosodium glutamate)” value is 2. In the case of `CC1CCCC(NC(=O)c2ccc3c(c2)OCO3)C1C` (stereo not shown) [Example 4, N-(2,3-dimethylcyclohexyl)benzo[d][1,3]dioxole-5-carboxamide], the “EC50 ratio (enhanced the effectiveness of monosodium glutamate)” value (compound present at 1 μM) amounted to 8.4. `CCCC(CCC)NC(=O)Nc1ccccc1Cl` [Example 158]: the “EC50 ratio (enhanced the effectiveness of monosodium glutamate)” value (compound present at 1 μM) turned out to be 4.95. For the compound `CCC(COC)NC(=O)c1cc2cc(Cl)ccc2o1` (stereo not shown) [Example A11, 5-chloro-N-(1-methoxybutan-2-yl)benzofuran-2-carboxamide], the “Ec50 ratio (vs. MSG)” value (Table A, compound @ 0.3 uM) was determined as 6.5.

The values above are taken from US8124121B2, “Flavors, flavor modifiers, tastants, taste enhancers, umami or sweet tastants, and/or enhancers and use thereof” (Senomyx, Inc., priority 2003, dated 2012).
